# Data from patent publication US6525001B1, “Substituted pyrimidine and pyridine herbicides” (Mid-American Commercialization Corporation, priority 1997, dated 2003).
# Assays:
# Format in all cases: in vivo
# [1] = tested on: smallflower flatsedge (Cyperus difformis); experiment: Test B flood test
# Experimental: (§1) At the same time, these crop and weed species were also treated with postemergence applications of test chemicals formulated in the same manner. Plants ranged in height from 2 to 18 cm (1- to 4-leaf stage) for postemergence treatments. Plant species in the flood test consisted of rice (Oryza sativa), smallflower flatsedge (Cyperus difformis), duck salad (Heteranthera limosa) and bamyardgrass (Echinochloa crus-galli) grown to the 2-leaf stage for testing. Treated plants and controls were maintained in a greenhouse for twelve to sixteen days, after which all species were compared to controls and visually evaluated. Plant response ratings, summarized in Table B, are based on a scale of 0 to 10 where 0 is no effect and 10 is complete control. A dash (−) response means no test result.
# [2] = tested on: rice (Oryza sativa); experiment: Test B flood test
# Experimental: as §1
# [3] = tested on: duck salad (Heteranthera limosa); experiment: Test B flood test
# Experimental: as §1
# [4] = tested on: bamyardgrass (Echinochloa crus-galli); experiment: Test B flood test
# Experimental: as §1
# [5] = tested on: sugar beet (Beta vulgaris); experiment: Test B pre-/postemergence; parameters: key: 0 is no effect; 10 is complete control
# Excerpt: (§2) Seeds of bedstraw (Galium aparine), blackgrass (Alopecurus myosuroides), broadleaf signalgrass (Brachiaria decumbens), cocklebur (Xanthium strumarium), corn (Zea mays), crabgrass (Digitaria sanguinalis), giant foxtail (Setaria faberii), lambsquarters (Chenopodium album), momingglory (Ipomoea hederacea), pigweed (Amaranthus retroflexus), rape (Brassica napus), soybean (Glycine max), sugar beet (Beta vulgaris), velvetleaf (Abutilon theophrasti), wheat (Triticum aestivum), wild oat (Avena fatua) and purple nutsedge (Cyperus rotundus) tubers were planted and treated preemergence with test chemicals formulated in a non-phytotoxic solvent mixture which included a surfactant.
# as §1
# [6] = tested on: velvetleaf (Abutilon theophrasti); experiment: Test B pre-/postemergence; parameters: key: 0 is no effect; 10 is complete control
# Excerpt: as §2, §1
# [7] = tested on: wheat (Triticum aestivum); experiment: Test B pre-/postemergence; parameters: key: 0 is no effect; 10 is complete control
# Excerpt: as §2, §1
# [8] = tested on: crabgrass (Digitaria sanguinalis); experiment: Test B pre-/postemergence; parameters: key: 0 is no effect; 10 is complete control; conditions: for Crabgrass plant response rating: Preemergence
# Excerpt: as §2, §1
# [9] = tested on: broadleaf signalgrass (Brachiaria decumbens); experiment: Test B pre-/postemergence; parameters: key: 0 is no effect; 10 is complete control; conditions: for B. signalgrass plant response rating: Preemergence
# Excerpt: as §2, §1
# [10] = tested on: cocklebur (Xanthium strumarium); experiment: Test B pre-/postemergence; parameters: key: 0 is no effect; 10 is complete control; conditions: for Cocklebur plant response rating: Preemergence
# Excerpt: as §2, §1
# [11] = tested on: wild oat (Avena fatua); experiment: Test B pre-/postemergence; parameters: key: 0 is no effect; 10 is complete control
# Excerpt: as §2, §1
# [12] = tested on: giant foxtail (Setaria faberii); experiment: Test B pre-/postemergence; parameters: key: 0 is no effect; 10 is complete control
# Excerpt: as §2, §1
# [13] = tested on: blackgrass (Alopecurus myosuroides); experiment: Test B pre-/postemergence; parameters: key: 0 is no effect; 10 is complete control; conditions: for Blackgrass plant response rating: Preemergence
# Excerpt: as §2, §1
# [14] = tested on: bedstraw (Galium aparine); experiment: Test B pre-/postemergence; parameters: key: 0 is no effect; 10 is complete control; conditions: for Bedstraw plant response rating: Preemergence
# Excerpt: as §2, §1
# [15] = tested on: rape (Brassica napus); experiment: Test B pre-/postemergence; parameters: key: 0 is no effect; 10 is complete control
# Excerpt: as §2, §1
# [16] = tested on: momingglory (Ipomoea hederacea); experiment: Test B pre-/postemergence; parameters: key: 0 is no effect; 10 is complete control
# Excerpt: as §2, §1
# [17] = tested on: corn (Zea mays); experiment: Test B pre-/postemergence; parameters: key: 0 is no effect; 10 is complete control; conditions: for Corn plant response rating: Preemergence
# Excerpt: as §2, §1
# [18] = tested on: pigweed (Amaranthus retroflexus); experiment: Test B pre-/postemergence; parameters: key: 0 is no effect; 10 is complete control
# Excerpt: as §2, §1
# [19] = tested on: soybean (Glycine max); experiment: Test B pre-/postemergence; parameters: key: 0 is no effect; 10 is complete control
# Excerpt: as §2, §1
# [20] = Rate 62 g/ha, Postemergence (flood test)
# [21] = Rate 125 g/ha, Postemergence section (flood test species)
# [22] = Rate 250 g/ha, Postemergence (flood test species)
# [23] = Rate 125 g/ha, Postemergence, flood test
# [24] = Rate 250 g/ha, Postemergence (so in the source)
structure (smiles),measurement,setting,value
CCc1cnc(-n2cnc(C(F)(F)F)c2)nc1Cc1cccc(OC(F)(F)F)c1 [Compound 49],"Plant response rating, S. Flatsedge",[1]; [20],4
same,S. Flatsedge plant response rating,[1]; [21],4
same,"Plant response rating, S. Flatsedge",[1]; [22],9
same,"Plant response rating, Rice",[2]; [20],3
same,Rice plant response rating,[2]; [21],4
same,"Plant response rating, Rice",[2]; [22],5
same,"Plant response rating, Ducksalad",[3]; [20],4
same,"Plant response rating, Ducksalad",[3]; [23],4
same,"Plant response rating, Ducksalad",[3]; [22],4
same,"Plant response rating, Barnyardgrass",[4]; [20],5
same,"Plant response rating, Barnyardgrass",[4]; [23],5
same,"Plant response rating, Barnyardgrass",[4]; [22],6
same,"Plant response rating, Sugarbeets","[5]; Rate 62 g/ha, Postemergence",9
same,Sugarbeets plant response rating,"[5]; Rate 62 g/ha, Preemergence",6
same,Sugarbeets plant response rating,"[5]; Rate 125 g/ha, Postemergence",9
same,"Plant response rating, Sugarbeets","[5]; Rate 125 g/ha, Preemergence",6
same,"Plant response rating, Sugarbeets","[5]; Rate 250 g/ha, Postemergence",9
same,"Plant response rating, Sugarbeets",[5]; [24],9
same,"Plant response rating, Velvetleaf","[6]; Rate 62 g/ha, Postemergence",8
same,Velvetleaf plant response rating,"[6]; Rate 62 g/ha, Preemergence",3
same,Velvetleaf plant response rating,"[6]; Rate 125 g/ha, Postemergence",8
same,"Plant response rating, Velvetleaf","[6]; Rate 125 g/ha, Preemergence",8
same,"Plant response rating, Velvetleaf","[6]; Rate 250 g/ha, Postemergence",9
same,"Plant response rating, Velvetleaf",[6]; [24],8
same,Wheat plant response rating,"[7]; Rate 62 g/ha, Postemergence",4
same,Wheat plant response rating,"[7]; Rate 62 g/ha, Preemergence",1
same,Wheat plant response rating,"[7]; Rate 125 g/ha, Postemergence",5
same,"Plant response rating, Wheat","[7]; Rate 125 g/ha, Preemergence",4
same,"Plant response rating, Wheat","[7]; Rate 250 g/ha, Postemergence",5
same,"Plant response rating, Wheat",[7]; [24],4
same,"Plant response rating, Crabgrass","[8]; Rate 62 g/ha, Postemergence",5
same,Crabgrass plant response rating,[8]; Rate 62 g/ha,5
same,"Plant response rating, Crabgrass","[8]; Rate 125 g/ha, Postemergence",6
same,Crabgrass plant response rating,[8]; Rate 125 g/ha,7
same,"Plant response rating, Crabgrass","[8]; Rate 250 g/ha, Postemergence",9
same,"Plant response rating, Crabgrass",[8]; [24],9
same,"Plant response rating, B. signalgrass","[9]; Rate 62 g/ha, Postemergence",2
same,B. signalgrass plant response rating,[9]; Rate 62 g/ha,0
same,"Plant response rating, B. signalgrass","[9]; Rate 125 g/ha, Postemergence",3
same,B. signalgrass plant response rating,[9]; Rate 125 g/ha,1
same,"Plant response rating, B. signalgrass","[9]; Rate 250 g/ha, Postemergence",4
same,"Plant response rating, B. signalgrass","[9]; Rate 250 g/ha, Postemergence as printed in head r139 (second section for compounds 26-50)",5
same,"Plant response rating, Cocklebur","[10]; Rate 62 g/ha, Postemergence",7
same,Cocklebur plant response rating,[10]; Rate 62 g/ha,0
same,"Plant response rating, Cocklebur","[10]; Rate 125 g/ha, Postemergence",7
same,Cocklebur plant response rating,[10]; Rate 125 g/ha,0
same,"Plant response rating, Cocklebur","[10]; Rate 250 g/ha, Postemergence",9
same,"Plant response rating, Cocklebur",[10]; [24],2
same,Wild oats plant response rating,"[11]; Rate 62 g/ha, Postemergence",5
same,Wild oats plant response rating,"[11]; Rate 62 g/ha, Preemergence",2
same,Wild oats plant response rating,"[11]; Rate 125 g/ha, Postemergence",6
same,"Plant response rating, Wild oats","[11]; Rate 125 g/ha, Preemergence",6
same,"Plant response rating, Wild oats","[11]; Rate 250 g/ha, Postemergence",7
same,"Plant response rating, Wild oats",[11]; [24],7
same,"Plant response rating, Giant foxtail","[12]; Rate 62 g/ha, Postemergence",2
same,Giant foxtail plant response rating,"[12]; Rate 62 g/ha, Preemergence",5
same,Giant foxtail plant response rating,"[12]; Rate 125 g/ha, Postemergence",5
same,Giant foxtail plant response rating,"[12]; Rate 125 g/ha, Preemergence",8
same,"Plant response rating, Giant foxtail","[12]; Rate 250 g/ha, Postemergence",5
same,"Plant response rating, Giant foxtail",[12]; [24],9
same,"Plant response rating, Blackgrass","[13]; Rate 62 g/ha, Postemergence",5
same,Blackgrass plant response rating,[13]; Rate 62 g/ha,4
same,"Plant response rating, Blackgrass","[13]; Rate 125 g/ha, Postemergence",6
same,Blackgrass plant response rating,[13]; Rate 125 g/ha,4
same,"Plant response rating, Blackgrass","[13]; Rate 250 g/ha, Postemergence",6
same,"Plant response rating, Blackgrass",[13]; [24],6
same,"Plant response rating, Bedstraw","[14]; Rate 62 g/ha, Postemergence",9
same,Bedstraw plant response rating,[14]; Rate 62 g/ha,4
same,Bedstraw plant response rating,[14]; Rate 125 g/ha,7
same,"Plant response rating, Bedstraw",[14]; [24],8
same,"Plant response rating, Rape","[15]; Rate 62 g/ha, Postemergence",9
same,Rape plant response rating,"[15]; Rate 62 g/ha, Preemergence",7
same,Rape plant response rating,"[15]; Rate 125 g/ha, Postemergence",9
same,Rape plant response rating,"[15]; Rate 125 g/ha, Preemergence",8
same,"Plant response rating, Rape","[15]; Rate 250 g/ha, Postemergence",9
same,"Plant response rating, Rape",[15]; [24],10
same,"Plant response rating, Morningglory","[16]; Rate 62 g/ha, Postemergence",2
same,Morningglory plant response rating,"[16]; Rate 62 g/ha, Preemergence",1
same,Morningglory plant response rating,"[16]; Rate 125 g/ha, Postemergence",6
same,Morningglory plant response rating,"[16]; Rate 125 g/ha, Preemergence",3
same,"Plant response rating, Morningglory","[16]; Rate 250 g/ha, Postemergence",9
same,"Plant response rating, Morningglory",[16]; [24],4
same,"Plant response rating, Corn","[17]; Rate 62 g/ha, Postemergence",3
same,Corn plant response rating,[17]; Rate 62 g/ha,0
same,"Plant response rating, Corn","[17]; Rate 125 g/ha, Postemergence",3
same,Corn plant response rating,[17]; Rate 125 g/ha,1
same,"Plant response rating, Corn","[17]; Rate 250 g/ha, Postemergence",4
same,"Plant response rating, Corn",[17]; [24],1
same,"Plant response rating, Redroot pigweed","[18]; Rate 62 g/ha, Postemergence",9
same,Redroot pigweed plant response rating,"[18]; Rate 62 g/ha, Preemergence",8
same,Redroot pigweed plant response rating,"[18]; Rate 125 g/ha, Postemergence",9
same,Redroot pigweed plant response rating,"[18]; Rate 125 g/ha, Preemergence",8
same,"Plant response rating, Redroot pigweed","[18]; Rate 250 g/ha, Postemergence",9
same,"Plant response rating, Redroot pigweed",[18]; [24],10
same,"Plant response rating, Soybean","[19]; Rate 62 g/ha, Postemergence",6
same,Soybean plant response rating,"[19]; Rate 62 g/ha, Preemergence",0
same,Soybean plant response rating,"[19]; Rate 125 g/ha, Postemergence",7
same,"Plant response rating, Soybean","[19]; Rate 125 g/ha, Preemergence",1
same,"Plant response rating, Soybean","[19]; Rate 250 g/ha, Postemergence",7
same,"Plant response rating, Soybean",[19]; [24],1
